From patent US9168329B2, “Beta-peptides with antifungal activity” (Wisconsin Alumni Research Foundation, priority 2006, dated 2015)

How the values were obtained:
[1] = test system: Candida albicans (SC5314, ATCC 24433, ATCC 90028); type: cell-based
Procedure: Minimum inhibitory concentration assay. Minimum inhibitory concentrations (MIC) for the β-peptides were determined using the broth microdilution assay described by the Committee for Clinical and Laboratory Standards (formerly known as the National Committee for Clinical Laboratory Standards) (National Committee for Clinical Laboratory Standards Reference method for broth dilution antifungal susceptibility testing of yeasts: approved standard—second edition; NCCLS document M27-A2; NCCLS: Wayne, Pa., 2002). Three strains of Candida albicans were used: SC5314, ATCC 24433, and ATCC 90028. Cells were grown for 24 hours on Sabouraud dextrose agar at 30° C. After 24 hours of growth, the cells were suspended in 0.145 M saline, and the concentration was adjusted to between 1×10^6 cells/mL and 5×10^6 cells/mL in saline. The working suspension was obtained by diluting the suspension 1:1000 in RPMI 1640 (with L-glutamine and without sodium bicarbonate, Invitrogen) buffered with 0.145 mol/L 3-(N-morpholino) propanesulfonic acid (MOPS).
Twofold serial dilutions of stock solutions of α- or β-peptides or amphotericin B (Calbiochem, solubilized in dimethyl sulfoxide) were made in RPMI 1640, and 100 μL aliquots were put into 96-well plates (Falcon). An equal volume of the cell suspension was added to the wells for a total volume of 200 μL. Growth controls and sterility controls were included.
Plates were incubated at 35° C. for 48 h and then visually inspected for fungal growth. […] Experiments were performed in duplicate and repeated on at least two different days.

[2] = test system: Candida albicans biofilms (ATCC 90028, ATCC 24433, SC5314); assay: Biofilm antifungal susceptibility testing (pre-formed biofilms, XTT); type: cell-based
Procedure: The susceptibility of Candida albicans biofilms to β-peptide treatment was evaluated using procedures based on the method described by Ramage and Lopez-Ribot. (Ramage, G.; Lopez-Ribot, J. L. Methods Mol. Med. 2005, 118, 71-79). ATCC 90028, ATCC 24433, and SC5314 were grown in liquid yeast peptone dextrose (YPD) medium overnight at 30° C. The cells were washed two times with phosphate-buffered saline (PBS, pH 7.2) and resuspended in RPMI 1640 (with L-glutamine and without sodium bicarbonate, Invitrogen) buffered with 0.145 mol/L 3-(N-morpholino) propanesulfonic acid (MOPS). After adjusting the cell suspension to about 1×10^6 cells/mL in RPMI 1640, 100 μL of the cell suspension was added to selected wells of flat-bottom 96-well plates (Falcon), leaving the last column of wells empty for background controls. Plates were covered and incubated at 37° C. for 48 hours to allow biofilms to form.
After formation, biofilms were washed three times with 200 μL of PBS per well to remove nonadherent cells. Twofold serial dilutions of β-peptide in RPMI 1640 were made, and 100 μL was added to the biofilms in the first 10 columns of the 96-well plates. RPMI 1640 without antifungal (100 μL) was added to the wells in column 11 to serve as a positive growth control. Plates were covered and incubated at 37° C. for an additional 48 hours and then washed as before.
A solution of 0.5 g/L of 2,3-bis(2-methoxy-4-nitro-5-sulfo-phenyl)-2H-tetrazolium-5-carboxanilide (XTT, Sigma) was prepared, and 10 mM menadione (Sigma) in acetone was added to give a final menadione concentration of 1 μM. The XTT solution (100 μL) was added to each well containing a biofilm and to the empty column of wells. The plates were incubated for 1.5 hours at 37° C. to allow the C. albicans cells to reduce the XTT. Following incubation, 75 μL of XTT solution was removed from each well and put into a new 96-well plate to measure the absorbance at 490 nm. The reduction of growth for each concentration of β-peptide was calculated from
[formula] where A490^peptide is the average absorbance for wells containing a specified concentration of a β-peptide, A490^no drug is the average absorbance for wells with biofilms not treated with antifungal, and A490^XTT is the average absorbance for wells containing only XTT. At least three replicates were included for each combination of β-peptide and C. albicans strains. Assay for Biofilm Formation in the Presence of β-Peptide

[3] = test system: Candida albicans (SC5314, ATCC 24433, ATCC 90028); conditions: from NCCLS document M27-A2; cited from earlier work
C. albicans = conditions: cited from earlier work
[4] = test system: C. albicans strain SC5314; assay: Assay for biofilm formation in the presence of β-peptide; type: cell-based, Candida albicans
Procedure: The ability of Candida albicans to form biofilms in the presence of β-peptide was tested using a procedure modified from the protocol for testing biofilms pre-formed in 96-well plates. C. albicans strain SC5314 was grown in liquid yeast peptone dextrose (YPD) medium overnight at 30° C., and the cells were washed twice with PBS (pH 7.2). Cells were resuspended in RPMI 1640, and the cell concentration was adjusted to about 2×10^6 cells/mL in RPMI 1640.
Twofold serial dilutions of β-peptide and amphotericin B were prepared in RPMI 1640, and 50 μL of each dilution was added to wells of a 96-well plate. At least three replicates were included. β-Peptide-free control wells were also included. An equal volume of the cell suspension was added to give a final cell concentration of 1×10^6 cells/mL. Plates were covered and placed in a 37° C. incubator for 48 hours.
After allowing biofilms to form for 48 hours, nonadherent cells were removed from the wells by washing the biofilms three times with 200 μL of PBS per well. A 0.5 g/L XTT solution with 1 μM menadione was prepared, and 100 μL was added to each biofilm formation well and to empty wells for XTT background measurements. […] The absorbance of the solution in each well was measured at 490 nm, and the reduction of growth for biofilms grown in the presence of β-peptide and amphotericin B compared to biofilms grown in medium only was calculated from […]

[5] = test system: human red blood cells (hRBC); assay: Hemolysis assay; type: cell-based
Procedure: Hemolysis assay. The hemolysis assay was performed using human red blood cells (hRBC) as described previously (Raguse, et al. J. Am. Chem. Soc. 2002, 124, 12774-12785; Porter, et al. J. Am. Chem. Soc. 2005, 127, 11516-11529). The hRBC were washed three times in TRIS-buffered saline (TBS; 10 mM TRIS, 150 mM NaCl, pH 7.2) and then diluted to a concentration of 1% (v/v) in TBS. The hRBC suspension (80 μL) was added to twofold dilutions of peptides in TBS (20 μL) in a 96-well plate (Falcon). Wells containing hRBC treated with 20 μL TBS provided a negative control, and wells with high concentrations of the peptide melittin (Sigma) served as a positive control. After incubating at 37° C. for 1 h, plates were centrifuged, and 50 μL of the supernatant was diluted with 50 μL of water in a fresh 96-well plate. The absorbance of the diluted supernatant was measured at 405 nm, and the percent hemolysis for each well was calculated from
[formula] where A405^peptide is the absorbance for the supernatant of hRBC treated with peptide, A405^buffer is the absorbance for the supernatant of hRBC in TBS, and A405^completlysis is the average absorbance for the supernatant of cells treated with melittin at concentrations of 50-400 μg/mL. Experiments were performed in duplicate on at least two different days. Biofilm Antifungal Susceptibility Testing

[6] = pH 7, physiological ionic strength

## β^3Tyr-ACHC-(ACHC-β^3Lys)3-ACHC-ACHC
[1]; [6]
  antifungal activity in the planktonic NCCLS assay (in words): lacking activity in the planktonic assay
[2]; pre-formed biofilms
  activity in the biofilm killing assay (in words): low activity

## β^3Tyr-(ACHC-β^3Val-β^3Lys)2
[1]; [6]
  antifungal activity in the planktonic NCCLS assay (in words): lacking activity in the planktonic assay
[2]; pre-formed biofilms
  activity in the biofilm killing assay (in words): low activity

## C[C@@H]1[C@H](O)[C@@H](C)/C=C/C=C/C=C/C=C/C=C/C=C/C=C/[C@H](O[C@@H]2O[C@H](C)[C@@H](O)[C@H](N)[C@@H]2O)C[C@@H]2O[C@](O)(C[C@@H](O)C[C@@H](O)[C@H](O)CC[C@@H](O)C[C@@H](O)CC(=O)O[C@H]1C)C[C@H](O)[C@H]2C(=O)O [Amphotericin B]
[3]
  MIC range: 0.3 to 2.2 µM

## magainin 2
C. albicans; pH 7, low ionic strength solutions
  concentration reducing C. albicans growth by 50%: below 1 μg/ml
C. albicans; pH 7, physiologic ionic strength
  activity against C. albicans (in words): inactive

## CCCCCCCCCCCCCCC(=O)N[C@H](CC(=O)N[C@H]1CCCC[C@@H]1C(=O)N[C@H]1CCCC[C@@H]1C(=O)N[C@@H](CCCCN)CC(=O)N[C@H]1CCCC[C@@H]1C(=O)N[C@H]1CCCC[C@@H]1C(=O)N[C@@H](CCCCN)CC(=O)N[C@H]1CCCC[C@@H]1C(=O)N[C@H]1CCCC[C@@H]1C(=O)N[C@@H](CCCCN)CC(N)=O)Cc1ccc(O)cc1 [C15-β^3Tyr-(ACHC-ACHC-β^3Lys)3]
[1]; [6]
  antifungal activity in the planktonic NCCLS assay (in words): lacking activity in the planktonic assay
[1]; planktonic, strain not stated
  MIC: > 128 µg/mL
[2]; at the highest concentration tested
  reduction in biofilm growth: barely surpassed this mark
[2]; pre-formed biofilms
  activity in the biofilm killing assay (in words): low activity

## OC(Cn1cncn1)(Cn1cncn1)c1ccc(F)cc1F [fluconazole]
[3]
  MIC range: 0.8 to 3.3 µM

## CC(C)[C@@H](CC(=O)N[C@@H](CCCCN)CC(=O)N[C@H]1CCCC[C@@H]1C(=O)N[C@H](CC(=O)N[C@@H](CCCCN)CC(=O)N[C@H]1CCCC[C@@H]1C(=O)N[C@H](CC(=O)N[C@@H](CCCCN)CC(N)=O)C(C)C)C(C)C)NC(=O)[C@H]1CCCC[C@@H]1NC(=O)C[C@@H](N)Cc1ccc(O)cc1 [β-peptide 1, β^3Tyr-(ACHC-β^3Val-β^3Lys)3]
[1]; average over three C. albicans strains, pH 7, physiological ionic strength, Table 1 prints no unit
  Average MIC: 16 µg/mL
[1]; [6]
  antifungal activity in the planktonic NCCLS assay (in words): showed activity in the planktonic assay
[4]
  biofilm-preventing concentration relative to planktonic MIC: two times its planktonic MIC
  concentration completely preventing biofilm formation: 32 µg/mL
[5]
  % Hemolysis at MIC: 21%
[2]; pre-formed biofilms
  concentration killing (nearly all cells in) pre-formed biofilms: 256 µg/mL
